For one series, the target named is WT HIV-1 RT (Human immunodeficiency virus type 1 group M subtype B, UniProt P03366). Put plainly: biochemical.
The test system of series [1] is WT HIV-1. As to conditions: Selectivity index CC50/EC50 (WT).
Another series concerns HIV-1 mutant Y188L. Put plainly: microbe, parasite or virus in culture. As to conditions: Human immunodeficiency virus 1, MT4, read-out: EC50 Y188L.
A further series relates to HIV-1 mutant L100I. Put plainly: microbe, parasite or virus in culture. As to conditions: Human immunodeficiency virus 1, MT4, read-out: EC50 L100I.
The nature of series [2]: Cytotoxicity in uninfected. As to conditions: human, mock-infected (uninfected) MT-4 cells, CC50, uninfected MT-4 cells, MTT.
Another series deals with HIV-1 mutant E138K. Put plainly: microbe, parasite or virus in culture. As to conditions: Human immunodeficiency virus 1, MT4, read-out: EC50 E138K.
The subject of series [3] is WT HIV-1. Put plainly: microbe, parasite or virus in culture. Particulars: Human immunodeficiency virus 1, MT4, read-out: WT EC50.
In a further series the test system is HIV-1 mutant K103N. Put plainly: microbe, parasite or virus in culture. As to conditions: Human immunodeficiency virus 1, MT4, read-out: EC50 K103N.

As usually defined, the IC50 is the midpoint of a concentration-inhibition curve. Low readings indicate inhibition by little substance, high ones a need for much substance. Usually EC50 stands for the concentration giving half of the maximal effect. One may read the CC50 as the concentration at which the toxic effect on the cells reaches its halfway point. The low end stands for harm at low concentration, the high end for better tolerance by the cells. On to `N#Cc1ccc(Nc2ncc(CO)c(Oc3ccc(-c4ccc(C#N)cc4)cc3F)n2)cc1` [9d, 4′-((2-((4-Cyanophenyl)amino)-5-(hydroxymethyl)pyrimidin-4-yl)oxy)-3′-fluoro-[1,1′-biphenyl]-4-carbonitrile], for which, on WT HIV-1 RT, half-maximal inhibition (IC50) required 33 ± 2 nM. Also, the SI in the series with WT HIV-1 [1] was >11,594. In addition, the EC50 with HIV-1 mutant Y188L stood at 41800 nM; with HIV-1 mutant L100I it was 117 ± 17.7 nM; in the series on HIV-1 mutant E138K, 34.9 ± 3.2 nM; in the series on WT HIV-1 [3], 3.9 ± 0.4 nM; with HIV-1 mutant K103N, 14.4 ± 1.5 nM. In addition, the CC50 at 5 days in series [2] was more than 45800 nM.
`Cc1cc(-c2ccc(C#N)cc2)cc(C)c1Oc1nc(Nc2ccc(C#N)cc2)ncc1CO` [9a, 4′-((2-((4-Cyanophenyl)amino)-5-(hydroxymethyl)pyrimidin-4-yl)oxy)-3′,5′-dimethyl-[1,1′-biphenyl]-4-carbonitrile] registered an IC50 against WT HIV-1 RT of 35 ± 8 nM. In the series on WT HIV-1 [1], this compound had an SI of 6343. For the same compound, the EC50 is 33 ± 4 nM with HIV-1 mutant Y188L; 6.3 ± 0.3 nM with HIV-1 mutant L100I; 6.5 ± 0.5 nM with HIV-1 mutant E138K; 2.5 ± 0.6 nM in the series on WT HIV-1 [3]; 3.2 ± 0.7 nM in the series on HIV-1 mutant K103N. For the same compound, it took 15600 ± 4600 nM to reach half-maximal cytotoxicity in series [2] (CC50 at 5 days).
On to `Cc1cc(-c2ccncc2)cc(C)c1Oc1nc(Nc2ccc(C#N)cc2)ncc1CO` [9h, 4-((4-(2,6-Dimethyl-4-(pyridin-4-yl)phenoxy)-5-(hydroxymethyl)pyrimidin-2-yl)amino)benzonitrile], for which the SI in the series on WT HIV-1 [1] is 30,868. For the same compound, the EC50 worked out at 1580 ± 103 nM with HIV-1 mutant Y188L; 323 ± 44.5 nM in the series with HIV-1 mutant L100I; 38.9 ± 4.1 nM in the series on HIV-1 mutant E138K; 7.1 ± 3 nM in the series on WT HIV-1 [3]; 20.1 ± 3 nM in the series with HIV-1 mutant K103N. The compound also gave a CC50 at 5 days in series [2] of 221000 ± 12500 nM.
On to `Cc1cc(C#N)cc(C)c1Oc1nc(Nc2ccc(C#N)cc2)nc(N)c1Br` [ETR, etravirine, reference compound], for which the EC50 in the series on HIV-1 mutant Y188L amounted to 20 ± 10 nM; in the series with HIV-1 mutant L100I it was 7 nM; in the series with HIV-1 mutant E138K it was 7 ± 10 nM; with WT HIV-1 [3] it was 6 nM; in the series with HIV-1 mutant K103N it was 3 nM. For the same compound, the CC50 at 5 days in series [2] was more than 4600 nM.
Take `N#Cc1ccc(Nc2ncc(CO)c(Oc3ccc(-c4ccc(C#N)cc4)cc3C(F)(F)F)n2)cc1` [9f, 4′-((2-((4-Cyanophenyl)amino)-5-(hydroxymethyl)pyrimidin-4-yl)oxy)-3′-(trifluoromethyl)-[1,1′-biphenyl]-4-carbonitrile]: on WT HIV-1 RT, it took 21 ± 6 nM to reach half-maximal inhibition (IC50). In addition, the SI with WT HIV-1 [1] is listed as 7891. Moreover, the EC50 with HIV-1 mutant Y188L was determined as 85.3 ± 8.4 nM; in the series on HIV-1 mutant L100I, 11.1 ± 0.5 nM; with HIV-1 mutant E138K it was 7.9 ± 0.2 nM; in the series on WT HIV-1 [3], 1.8 ± 0.1 nM; with HIV-1 mutant K103N it was 3.2 ± 0.6 nM. The compound also had a CC50 at 5 days in series [2] of 14600 ± 3100 nM.
As to `N#Cc1ccc(Nc2ncc(CO)c(Oc3ccc(-c4cccnc4)cc3F)n2)cc1` [9m, 4-((4-(2-Fluoro-4-(pyridin-3-yl)phenoxy)-5-(hydroxymethyl)pyrimidin-2-yl)amino)benzonitrile], in the series on WT HIV-1 [1], the SI turned out to be 583. For the same compound, the EC50 with HIV-1 mutant Y188L was more than 178000 nM; in the series on HIV-1 mutant L100I it was 13700 ± 1140 nM; in the series on HIV-1 mutant E138K it was 2490 ± 388 nM; in the series with WT HIV-1 [3] it was 306 ± 43.6 nM; with HIV-1 mutant K103N, 1690 ± 165 nM. The compound further had a CC50 at 5 days in series [2] of 178000 ± 32900 nM.
With `N#Cc1ccc(Nc2ncc(CO)c(Oc3ccc(-c4ccncc4)cc3F)n2)cc1` [9j, 4-((4-(2-Fluoro-4-(pyridin-4-yl)phenoxy)-5-(hydroxymethyl)pyrimidin-2-yl)amino)benzonitrile], the SI with WT HIV-1 [1] is given as >10,256. In addition, the EC50 was more than 48400 nM with HIV-1 mutant Y188L; 327 ± 44.9 nM in the series on HIV-1 mutant L100I; 42.4 ± 6.7 nM with HIV-1 mutant E138K; 4.7 ± 0.7 nM with WT HIV-1 [3]; 35.1 ± 8.1 nM with HIV-1 mutant K103N. In addition, in series [2], the CC50 at 5 days was more than 48400 nM.
For the compound `O=C1Nc2ccc(Cl)cc2[C@@](C#CC2CC2)(C(F)(F)F)O1` [EFV, efavirenz, reference compound], the half-maximal effective concentration (EC50) was determined as 290 ± 40 nM with HIV-1 mutant Y188L; 440 ± 70 nM in the series with HIV-1 mutant L100I; 6 nM in the series with HIV-1 mutant E138K; 7 nM in the series with WT HIV-1 [3]; 102 ± 50 nM with HIV-1 mutant K103N. For the same compound, the CC50 at 5 days in series [2] is more than 6300 nM.
On to `N#Cc1ccc(Nc2ncc(CO)c(Oc3ccc(-c4ccncc4)cc3Cl)n2)cc1` [9k, 4-((4-(2-Chloro-4-(pyridin-4-yl)phenoxy)-5-(hydroxymethyl)pyrimidin-2-yl)amino)benzonitrile], for which the SI in the series with WT HIV-1 [1] is recorded as 53,539. For the same compound, the EC50 turned out to be 43000 nM with HIV-1 mutant Y188L; 327 ± 54.8 nM in the series on HIV-1 mutant L100I; 45.9 ± 5.9 nM in the series with HIV-1 mutant E138K; 4.9 ± 0.9 nM in the series with WT HIV-1 [3]; 35.4 ± 12.3 nM with HIV-1 mutant K103N. Besides, in series [2], the CC50 at 5 days turned out to be 264000 ± 10200 nM.
`COc1cc(-c2ccc(C#N)cc2)ccc1Oc1nc(Nc2ccc(C#N)cc2)ncc1CO` [9c, 4′-((2-((4-Cyanophenyl)amino)-5-(hydroxymethyl)pyrimidin-4-yl)oxy)-3′-methoxy-[1,1′-biphenyl]-4-carbonitrile]: the IC50 at WT HIV-1 RT is 21 ± 8 nM. Further, in the series on WT HIV-1 [1], the SI was 149,540. Besides, the EC50 in the series on HIV-1 mutant Y188L was determined as 137 ± 8.1 nM; with HIV-1 mutant L100I, 20.5 ± 1.3 nM; in the series on HIV-1 mutant E138K, 19.4 ± 4.8 nM; in the series with WT HIV-1 [3] it was 1.7 ± 0.1 nM; with HIV-1 mutant K103N it was 6.5 ± 0.2 nM. For the same compound, half-maximal cytotoxicity in series [2] (CC50 at 5 days) was put at 258000 ± 1200 nM.
Compound `N#Cc1ccc(Nc2ncc(CO)c(Oc3ccc(-c4ccc(C#N)cc4)cc3Cl)n2)cc1` [9e, 3′-Chloro-4′-((2-((4-cyanophenyl)amino)-5-(hydroxymethyl)pyrimidin-4-yl)oxy)-[1,1′-biphenyl]-4-carbonitrile] registered an IC50 at WT HIV-1 RT of 29 ± 3 nM. For the same compound, the SI with WT HIV-1 [1] was >17,021. For the same compound, the EC50 is 564 ± 97 nM in the series with HIV-1 mutant Y188L; 18.5 ± 3.6 nM with HIV-1 mutant L100I; 11 ± 2.1 nM with HIV-1 mutant E138K; 2.6 ± 0.5 nM in the series with WT HIV-1 [3]; 3.8 ± 0.2 nM in the series on HIV-1 mutant K103N. In series [2], this compound came in with a CC50 at 5 days of more than 44100 nM.
For `COc1cc(-c2ccncc2)ccc1Oc1nc(Nc2ccc(C#N)cc2)ncc1CO` [9i, 4-((5-(Hydroxymethyl)-4-(2-methoxy-4-(pyridin-4-yl)phenoxy)pyrimidin-2-yl)amino)benzonitrile], the SI in the series with WT HIV-1 [1] was 1679. The EC50 in the series with HIV-1 mutant Y188L turned out to be 1750 ± 123 nM; in the series with HIV-1 mutant L100I, 560 ± 137 nM; in the series on HIV-1 mutant E138K it was 217 ± 18.4 nM; in the series on WT HIV-1 [3] it was 18.2 ± 6.8 nM; in the series with HIV-1 mutant K103N, 95.6 ± 17.6 nM. For the same compound, the CC50 at 5 days in series [2] turned out to be 30500 ± 3400 nM.
`Cc1cc(-c2ccc(C#N)cc2)ccc1Oc1nc(Nc2ccc(C#N)cc2)ncc1CO` [9b, 4′-((2-((4-Cyanophenyl)amino)-5-(hydroxymethyl)pyrimidin-4-yl)oxy)-3′-methyl-[1,1′-biphenyl]-4-carbonitrile]: at WT HIV-1 RT, half-maximal inhibition (IC50) was put at 27 ± 2 nM. In addition, the SI in the series on WT HIV-1 [1] was >38,095. The EC50 in the series on HIV-1 mutant Y188L is 144 ± 25.9 nM; in the series on HIV-1 mutant L100I, 18.1 ± 3.4 nM; in the series on HIV-1 mutant E138K it was 3.6 ± 0.7 nM; with WT HIV-1 [3] it was 1.2 ± 0.1 nM; with HIV-1 mutant K103N, 2.9 ± 0.1 nM. In series [2], the CC50 at 5 days was more than 46200 nM.
With `Cc1ccnc2c1NC(=O)c1cccnc1N2C1CC1` [NVP, nevirapine, reference compound], the half-maximal effective concentration (EC50) in the series on HIV-1 mutant Y188L is more than 15900 nM; in the series with HIV-1 mutant L100I, 2100 ± 750 nM; in the series on HIV-1 mutant E138K, 2100 ± 30 nM; in the series with HIV-1 mutant K103N it was more than 10100 nM. Also, in series [2], the CC50 at 5 days was more than 15000 nM.
For `N#Cc1ccc(Nc2ncc(CO)c(Oc3c(F)cc(-c4ccncc4)cc3F)n2)cc1` [9l, 4-((4-(2,6-Difluoro-4-(pyridin-4-yl)phenoxy)-5-(hydroxymethyl)pyrimidin-2-yl)amino)benzonitrile], the SI with WT HIV-1 [1] was 138,219. Also, the EC50 with HIV-1 mutant Y188L is 720 ± 272 nM; in the series with HIV-1 mutant L100I it was 22.2 ± 6.2 nM; with HIV-1 mutant E138K, 13.6 ± 1.2 nM; with WT HIV-1 [3] it was 0.9 nM; in the series on HIV-1 mutant K103N it was 3 ± 0.3 nM. In series [2], this compound came in with a CC50 at 5 days of 128000 ± 5500 nM.

Source of the values: PMC10372819 (Acta Pharmaceutica Sinica. B, 2023).
